Assay results published in US20190022152A1, “MICROBIOME RESPONSE TO AGENTS” (Yeda Research and Development Co., Ltd., priority 2014, published 2019).
Like-named read-outs stand apart in the source and are kept apart here.

Columns and labels:
fecal microbiota = settings: for Fold change (week 11/week 0) in relative species abundance: fecal samples, 11 weeks consumption
Protocol: Illumina sequence reads were mapped to the human microbiome reference genome database of the Human Microbiome Project [www(dot)hmpdacc(dot)org/HMREFG/^32], and to a gut microbial gene catalogue^33 using GEM mapper^58 with the following parameters: • -m 3 -s 0 -q offset-33 -gem-quality-threshold 26
Microbial species abundance was measured as the fraction of reads that mapped to a single species in the database. An EM algorithm adapted from Pathoscope^59 was employed to determine the correct assignment of reads that mapped to more than one species. We considered only species for which at least 10% of the genome was covered (each coverage bin was 10,000-bp long) in at least one of the growth conditions (saccharin, water, or glucose). Reads mapped to the gut microbial gene catalogue were assigned a KEGG^34,35 ID according to the mapping available with the catalogue. Genes were subsequently mapped to KEGG pathways, and only pathways whose gene coverage was above 0.2 were included.

[1] = tested on: fecal matter from naïve mice; assay: In vitro anaerobic culturing of fecal matter with saccharin; type: cell-based; settings: anaerobic culture with saccharin 5 mgml^−1, day 9
Protocol: pooled fecal matter from naïve adult WT C57Bl/6 male mice was resuspended in 5 ml PBS in an anaerobic chamber (Coy Laboratory Products, 75% N2, 20% CO2, 5% H2), vortexed for 3 minutes and allowed to settle by gravity for 2 minutes. […] were added to a tube containing Chopped Meat Carbohydrate Broth, PR II (BD) and […] of a 5 mgml-1 saccharin solution or an equal volume of PBS. Every 3 days, 500 ml of culture were diluted to fresh medium containing saccharin or PBS. After 9 days, cultures were used for inoculation of germ-free mice.
Frozen fecal samples were processed for DNA isolation using the MoBio PowerSoil kit according to the manufacturer's instructions. […] the variable region 2 (V2) of the 16S rRNA gene were generated by using the following barcoded primers: Fwd 5′-[…]-3′ (SEQ ID NO: 3), Rev 5′-[…]-3′ (SEQ ID NO: 4). […] Reads were then processed using the QIIME (Quantitative Insights Into Microbial Ecology) analysis pipeline as described, version 1.8. Paired-end joined sequences were grouped into operational taxonomic units (OTUs) using the UCLUST algorithm and the greengenes database. Sequences with distance-based similarity of 97% or greater over median sequence length of 353 bp were assigned to the same OTU. Samples were grouped according to the treatment. […] P-values were FDR corrected for multiple hypothesis testing.

Compound: O=C1NS(=O)(=O)c2ccccc21 [saccharin]
- changes in microbial relative species abundance (fecal microbiota; 11 weeks commercial saccharin vs glucose or water, F-test p<10^−10): largest changes
- Fold change (week 11/week 0) in relative species abundance (fecal microbiota; Symbol BACT_9, Number 996): 0.65
- Fold change (week 11/week 0) in relative species abundance (fecal microbiota; Symbol BACT_22, Number 639): 0.36
- Fold change (week 11/week 0) in relative species abundance (fecal microbiota; Symbol BACT_38, Number 780): 0.50
- Fold change (week 11/week 0) in relative species abundance (fecal microbiota; Symbol BACT_49, Number 420): 0.02
- Fold change (week 11/week 0) in relative species abundance (fecal microbiota; Symbol BACT_60, Number 752): 0.71
- Fold change (week 11/week 0) in relative species abundance (fecal microbiota; Symbol BACT_65, Number 918): 6.73
- Fold change (week 11/week 0) in relative species abundance (fecal microbiota; Symbol BACT_70, Number 863): 9.41
- Fold change (week 11/week 0) in relative species abundance (fecal microbiota; Symbol BACT_85, Number 934): 0.45
- Fold change (week 11/week 0) in relative species abundance (fecal microbiota; Symbol BACT_142, Number 843): 0.42
- Fold change (week 11/week 0) in relative species abundance (fecal microbiota; Symbol BACT_170, Number 883): 0.48
- Fold change (week 11/week 0) in relative species abundance (fecal microbiota; Symbol BACT_171, Number 748): 0.56
- Fold change (week 11/week 0) in relative species abundance (fecal microbiota; Symbol BACT_172, Number 768): 1.03
- Fold change (week 11/week 0) in relative species abundance (fecal microbiota; Symbol BACT_178, Number 921): 0.28
- Fold change (week 11/week 0) in relative species abundance (fecal microbiota; Symbol BACT_181, Number 767): 0.40
- Fold change (week 11/week 0) in relative species abundance (fecal microbiota; Symbol BACT_185, Number 633): 8.79
- Fold change (week 11/week 0) in relative species abundance (fecal microbiota; Symbol BACT_189, Number 636): 1.92
- Fold change (week 11/week 0) in relative species abundance (fecal microbiota; Symbol BACT_192, Number 995): 0.36
- Fold change (week 11/week 0) in relative species abundance (fecal microbiota; Symbol BACT_194, Number 846): 0.51
- Fold change (week 11/week 0) in relative species abundance (fecal microbiota; Symbol BACT_195, Number 523): 0.40
- Fold change (week 11/week 0) in relative species abundance (fecal microbiota; Symbol BACT_196, Number 395): 12.66
- Fold change (week 11/week 0) in relative species abundance (fecal microbiota; Symbol BACT_225, Number 953): 0.44
- Fold change (week 11/week 0) in relative species abundance (fecal microbiota; Symbol BACT_258, Number 620): 0.55
- Fold change (week 11/week 0) in relative species abundance (fecal microbiota; Symbol BACT_260, Number 1443): 0.55
- Fold change (week 11/week 0) in relative species abundance (fecal microbiota; Symbol BACT_300, Number 769): 0.50
- Fold change (week 11/week 0) in relative species abundance (fecal microbiota; Symbol BACT_371, Number 960): 2.13
- Fold change (week 11/week 0) in relative species abundance (fecal microbiota; Symbol BACT_374, Number 805): 0.34
- Fold change (week 11/week 0) in relative species abundance (fecal microbiota; Symbol BACT_392, Number 915): 0.66
- Fold change (week 11/week 0) in relative species abundance (fecal microbiota; Symbol BACT_393, Number 932): 0.53
- Fold change (week 11/week 0) in relative species abundance (fecal microbiota; Symbol BACT_397, Number 914): 0.45
- Fold change (week 11/week 0) in relative species abundance (fecal microbiota; Symbol BACT_409, Number 845): 9.91
- Fold change (week 11/week 0) in relative species abundance (fecal microbiota; Symbol BACT_413, Number 847): 1.25
- Fold change (week 11/week 0) in relative species abundance (fecal microbiota; Symbol BACT_418, Number 749): 0.22
- Fold change (week 11/week 0) in relative species abundance (fecal microbiota; Symbol BACT_419, Number 920): 0.15
- Fold change (week 11/week 0) in relative species abundance (fecal microbiota; Symbol BACT_420, Number 922): 0.33
- Fold change (week 11/week 0) in relative species abundance (fecal microbiota; Symbol BACT_424, Number 906): 0.29
- Fold change (week 11/week 0) in relative species abundance (fecal microbiota; Symbol BACT_449, Number 772): 2.90
- Fold change (week 11/week 0) in relative species abundance (fecal microbiota; Symbol BACT_463, Number 719): 0.00
- Fold change (week 11/week 0) in relative species abundance (fecal microbiota; Symbol BACT_496, Number 765): 2.97
- Fold change (week 11/week 0) in relative species abundance (fecal microbiota; Symbol BACT_499, Number 35): 0.24
- Fold change (week 11/week 0) in relative species abundance (fecal microbiota; Symbol BACT_511, Number 591): 3.71
- Fold change (week 11/week 0) in relative species abundance (fecal microbiota; Symbol BACT_535, Number 940): 0.14
- Fold change (week 11/week 0) in relative species abundance (fecal microbiota; Symbol BACT_539, Number 117): 0.22
- Fold change (week 11/week 0) in relative species abundance (fecal microbiota; Symbol BACT_551, Number 907): 0.62
- Fold change (week 11/week 0) in relative species abundance (fecal microbiota; Symbol BACT_572, Number 963): 0.70
- Fold change (week 11/week 0) in relative species abundance (fecal microbiota; Symbol BACT_586, Number 849): 0.70
- Fold change (week 11/week 0) in relative species abundance (fecal microbiota; Symbol BACT_627, Number 886): 0.16
- Fold change (week 11/week 0) in relative species abundance (fecal microbiota; Symbol BACT_632, Number 871): 3.17
- Fold change (week 11/week 0) in relative species abundance (fecal microbiota; Symbol BACT_681, Number 125): 0.00
- Fold change (week 11/week 0) in relative species abundance (fecal microbiota; Symbol BACT_686, Number 1007): 0.00
- Fold change (week 11/week 0) in relative species abundance (fecal microbiota; Symbol BACT_722, Number 377): 1.88
- Fold change (week 11/week 0) in relative species abundance (fecal microbiota; Symbol BACT_769, Number 610): 3.38
- Fold change (week 11/week 0) in relative species abundance (fecal microbiota; Symbol BACT_843, Number 1318): 0.16
- Fold change (week 11/week 0) in relative species abundance (fecal microbiota; Symbol BACT_850, Number 394): 2.51
- Fold change (week 11/week 0) in relative species abundance (fecal microbiota; Symbol BACT_852, Number 766): 0.77
- Fold change (week 11/week 0) in relative species abundance (fecal microbiota; Symbol BACT_855, Number 835): 0.34
- Fold change (week 11/week 0) in relative species abundance (fecal microbiota; Symbol BACT_890, Number 163): 0.15
- Fold change (week 11/week 0) in relative species abundance (fecal microbiota; Symbol BACT_913, Number 904): 1.10
- Fold change (week 11/week 0) in relative species abundance (fecal microbiota; Symbol BACT_915, Number 1315): 10.39
- Fold change (week 11/week 0) in relative species abundance (fecal microbiota; Symbol BACT_931, Number 1088): 0.53
- Fold change (week 11/week 0) in relative species abundance (fecal microbiota; Symbol BACT_1001, Number 933): 0.75
- Fold change (week 11/week 0) in relative species abundance (fecal microbiota; Symbol BACT_1025, Number 751): 0.53
- Fold change (week 11/week 0) in relative species abundance (fecal microbiota; Symbol BACT_1043, Number 948): 1.08
- Fold change (week 11/week 0) in relative species abundance (fecal microbiota; Symbol BACT_1083, Number 1008): 0.00
- Fold change (week 11/week 0) in relative species abundance (fecal microbiota; Symbol BACT_1131, Number 942): 0.34
- Fold change (week 11/week 0) in relative species abundance (fecal microbiota; Symbol BACT_1311, Number 1259): 0.34
- Fold change (week 11/week 0) in relative species abundance (fecal microbiota; Symbol BACT_1314, Number 1399): 0.67
- Fold change (week 11/week 0) in relative species abundance (fecal microbiota; Symbol BACT_1315, Number 1395): 0.46
- Fold change (week 11/week 0) in relative species abundance (fecal microbiota; Symbol BACT_1321, Number 1255): 3.20
- Fold change (week 11/week 0) in relative species abundance (fecal microbiota; Symbol BACT_1322, Number 1396): 0.91
- Fold change (week 11/week 0) in relative species abundance (fecal microbiota; Symbol BACT_1324, Number 1264): 12.01
- Fold change (week 11/week 0) in relative species abundance (fecal microbiota; Symbol BACT_1348, Number 1311): 9.24
- Fold change (week 11/week 0) in relative species abundance (fecal microbiota; Symbol BACT_1378, Number 1375): 141.18
- Fold change (week 11/week 0) in relative species abundance (fecal microbiota; Symbol BACT_1427, Number 1266): 0.00
- Fold change (week 11/week 0) in relative species abundance (fecal microbiota; Symbol BACT_1442, Number 1400): 2.16
- Fold change (week 11/week 0) in relative species abundance (fecal microbiota; Symbol BACT_1457, Number 1337): 0.23
- Fold change (week 11/week 0) in relative species abundance (fecal microbiota; Symbol BACT_1496, Number 1321): 2.65
- Fold change (week 11/week 0) in relative species abundance (fecal microbiota; Symbol BACT_1501, Number 1331): 0.17
- Fold change (week 11/week 0) in relative species abundance (fecal microbiota; Symbol BACT_1526, Number 1227): 0.07
- Fold change (week 11/week 0) in relative species abundance (fecal microbiota; Symbol BACT_1555, Number 1469): 0.21
- Fold change (week 11/week 0) in relative species abundance (fecal microbiota; Symbol BACT_1569, Number 1462): 0.30
- Fold change (week 11/week 0) in relative species abundance (fecal microbiota; Symbol BACT_1595, Number 1533): 0.00
- Fold change (week 11/week 0) in relative species abundance (fecal microbiota; Symbol BACT_1596, Number 1502): 0.12
- Fold change (week 11/week 0) in relative species abundance (fecal microbiota; Symbol BACT_1656, Number 1503): 0.12
- Fold change (week 11/week 0) in relative species abundance (fecal microbiota; Symbol BACT_3004, Number 5797): 11.92
- Fold change (week 11/week 0) in relative species abundance (fecal microbiota; Symbol BACT_3005, Number 5799): 1.01
- Fold change (week 11/week 0) in relative species abundance (fecal microbiota; Symbol BACT_3007, Number 5798): 1.89
- Fold change (week 11/week 0) in relative species abundance (fecal microbiota; Symbol BACT_3024, Number 5841): 0.02
- Fold change (week 11/week 0) in relative species abundance (fecal microbiota; Symbol BACT_3045, Number 5818): 0.01
- Fold change (week 11/week 0) in relative species abundance (fecal microbiota; Symbol BACT_3056, Number 5836): 0.00
- Fold change (week 11/week 0) in relative species abundance (fecal microbiota; Symbol BACT_3058, Number 5816): 0.11
- Fold change (week 11/week 0) in relative species abundance (fecal microbiota; Symbol BACT_3060, Number 5821): 0.00
- Fold change (week 11/week 0) in relative species abundance (fecal microbiota; Symbol BACT_3062, Number 5800): 0.99
- Fold change (week 11/week 0) in relative species abundance (fecal microbiota; Symbol BACT_3085, Number 5842): 0.03
- Fold change (week 11/week 0) in relative species abundance (fecal microbiota; Symbol BACT_3092, Number 5793): 2.71
- Fold change (week 11/week 0) in relative species abundance (fecal microbiota; Symbol BACT_4040, Number 5769): 1.16
- Fold change (week 11/week 0) in relative species abundance (fecal microbiota; Symbol BACT_4042, Number 5770): 0.04
- Fold change (week 11/week 0) in relative species abundance (fecal microbiota; Symbol EUKY_22, Number 1758): 0.45
- Fold change (week 11/week 0) in relative species abundance (fecal microbiota; Symbol EUKY_141, Number 1875): 0.53
- Fold change (week 11/week 0) in relative species abundance (fecal microbiota; Symbol EUKY_222, Number 1954): 0.49
- Fold change (week 11/week 0) in relative species abundance (fecal microbiota; Symbol V1RL3522, Number 3522): 0.02
- Firmicutes relative abundance in stool culture ([1]; control 22%): 6%
- Bacteroidetes phyla relative abundance in stool culture ([1]; control 70%): 89%
